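Five concentrations, 48 hours, 96-well plates. GI50: concentration for 50% inhibition of growth.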 Activity calls are given as the source filed them. Rule as the data show it: active = GI50 up to about 1.1 µM and inactive = higher.
What was measured:
Experiment in all cases: DTP human tumour cell line panel, 48 h
LXFL 529 = system: LXFL 529
EKVX = system: EKVX
LOX IMVI = system: LOX IMVI
UACC-257 = system: UACC-257
IGROV-1 = system: IGROV-1
UO-31 = system: UO-31
SF-539 = system: SF-539
DU-145 = system: DU-145
SNB-19 = system: SNB-19
OVCAR-8 = system: OVCAR-8
U-251 = system: U-251
HCC 2998 = system: HCC 2998
KM12 = system: KM12
RPMI-8226 = system: RPMI-8226
MDA-MB-435 = system: MDA-MB-435
M14 = system: M14
CAKI-1 = system: CAKI-1
SK-MEL-5 = system: SK-MEL-5
SF-268 = system: SF-268
786-0 = system: 786-0

Measured: GI50

C=C(CN(C)C)C(=O)c1cc(C)ccc1C
inactive: LXFL 529 1.62 µM | EKVX 26.2 µM | LOX IMVI 4.84 µM | UACC-257 7.96 µM | IGROV-1 18 µM | UO-31 6.87 µM | SF-539 8.91 µM | DU-145 14.4 µM | SNB-19 19.9 µM | OVCAR-8 20.7 µM | U-251 15.7 µM | HCC 2998 15.8 µM | KM12 18.6 µM | RPMI-8226 1.42 µM | MDA-MB-435 8.45 µM | M14 2.11 µM | CAKI-1 4.39 µM | SK-MEL-5 13.3 µM | SF-268 20.3 µM | 786-0 2.96 µM

From ChEMBL document CHEMBL1201862, “PubChem BioAssay data set” (2004)
